Measured values: PubChem BioAssay AID256 (DTP/NCI, 2004)
“And” between values parts separate entries of the source, which are not always exact repeats. Identical values can stand only once. Inconclusive results and toxic doses are left out. Rule for the calls: active = survival T/C of 150% or more; inactive = T/C below 125% in these data.

Test system: CD2F1 mice, L1210 leukemia ip, survival T/C
Experiment: NCI In Vivo Anticancer Drug Screen. Data for tumor model L1210 Leukemia (intraperitoneal) in CD2F1 (CDF1) mice
Conditions: higher = longer survival
Procedure, shortened: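 In this screen, transplantable tumors were grown in mice given either the compound or its vehicle. Results were expressed as the treated measurement relative to the control measurement.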

[1] = endpoint: mean survival time, dose: 200.0 mg/kg/injection, schedule: Q01DX001 (ip), vehicle: saline
[2] = endpoint: mean survival time, dose: 400.0 mg/kg/injection, schedule: Q01DX001 (ip), vehicle: saline
[3] = endpoint: mean survival time, dose: 100.0 mg/kg/injection, schedule: Q01DX001 (ip), vehicle: saline with Tween-80
[4] = endpoint: mean survival time, dose: 100.0 mg/kg/injection, schedule: Q01DX009 (ip), vehicle: Klucel (hydroxypropylcellulose) (HPC)
[5] = endpoint: mean survival time, dose: 200.0 mg/kg/injection, schedule: Q01DX009 (ip), vehicle: Klucel (hydroxypropylcellulose) (HPC)
[6] = endpoint: mean survival time, dose: 400.0 mg/kg/injection, schedule: Q01DX009 (ip), vehicle: Klucel (hydroxypropylcellulose) (HPC)
[7] = endpoint: mean survival time, dose: 50.0 mg/kg/injection, schedule: Q04DX003 (ip), vehicle: saline with Tween-80
[8] = endpoint: mean survival time, dose: 100.0 mg/kg/injection, schedule: Q04DX003 (ip), vehicle: saline with Tween-80
[9] = endpoint: mean survival time, dose: 25.0 mg/kg/injection, schedule: Q01DX009 (ip), vehicle: saline with Tween-80
[10] = endpoint: mean survival time, dose: 25.0 mg/kg/injection, schedule: Q04DX002 (ip), vehicle: saline with Tween-80
[11] = endpoint: mean survival time, dose: 50.0 mg/kg/injection, schedule: Q01DX009 (ip), vehicle: saline with Tween-80
[12] = endpoint: mean survival time, dose: 50.0 mg/kg/injection, schedule: Q04DX002 (ip), vehicle: saline with Tween-80
[13] = endpoint: mean survival time, dose: 100.0 mg/kg/injection, schedule: Q01DX009 (ip), vehicle: saline with Tween-80
[14] = endpoint: mean survival time, dose: 100.0 mg/kg/injection, schedule: Q04DX003 (ip), vehicle: other
[15] = endpoint: mean survival time, dose: 200.0 mg/kg/injection, schedule: Q04DX003 (ip), vehicle: saline with Tween-80
[16] = endpoint: mean survival time, dose: 400.0 mg/kg/injection, schedule: Q04DX003 (ip), vehicle: saline with Tween-80
[17] = endpoint: mean survival time, dose: 50.0 mg/kg/injection, schedule: Q01DX009 (ip), vehicle: Klucel (hydroxypropylcellulose) (HPC)

Measured: T/C

COc1cc2c(cc1OC)-c1c(cnn1C1OC(COC(C)=O)C(OC(C)=O)C(OC(C)=O)C1OC(C)=O)CC2 (centres undefined)
inactive: endpoint: mean survival time, dose: 12.5 mg/kg/injection, schedule: Q01DX005 (ip), vehicle: other 103 % of control | endpoint: mean survival time, dose: 25.0 mg/kg/injection, schedule: Q01DX005 (ip), vehicle: other 93 % of control | endpoint: mean survival time, dose: 50.0 mg/kg/injection, schedule: Q01DX005 (ip), vehicle: other 90 % of control | endpoint: mean survival time, dose: 100.0 mg/kg/injection, schedule: Q01DX005 (ip), vehicle: other 87 % of control

CC1OC(O)C(O)C(O)C1O (centres undefined)
inactive: endpoint: mean survival time, dose: 100.0 mg/kg/injection, schedule: Q01DX001 (ip), vehicle: saline 102 % of control | [1] 100 % of control | [2] 100 % of control

Cc1cc(N(C)C)c(C)cc1N=Nc1cc[n+]([O-])cc1
inactive: endpoint: mean survival time, dose: 56.3 mg/kg/injection, schedule: Q04DX002 (ip), vehicle: saline with Tween-80 96 % of control | endpoint: mean survival time, dose: 113.0 mg/kg/injection, schedule: Q04DX002 (ip), vehicle: saline with Tween-80 92 % of control

NC(Cn1ccc(=O)c(O)c1)C(=O)O (centres undefined)
inactive: endpoint: median survival time, dose: 50.0 mg/kg/injection, schedule: Q01DX009 (ip), vehicle: saline 106 % of control | endpoint: median survival time, dose: 100.0 mg/kg/injection, schedule: Q01DX009 (ip), vehicle: saline 107 % of control | endpoint: median survival time, dose: 200.0 mg/kg/injection, schedule: Q01DX009 (ip), vehicle: saline 107 % of control | endpoint: median survival time, dose: 400.0 mg/kg/injection, schedule: Q01DX009 (ip), vehicle: saline 114 % of control

CCOC(=O)N1C=Cc2ccccc2C1/C(N)=N/O (centres undefined)
inactive: [3] 98 % of control | [4] 96 % of control | endpoint: mean survival time, dose: 200.0 mg/kg/injection, schedule: Q01DX001 (ip), vehicle: saline with Tween-80 95 % of control | [5] 91 % of control | endpoint: mean survival time, dose: 400.0 mg/kg/injection, schedule: Q01DX001 (ip), vehicle: saline with Tween-80 94 % of control | [6] 91 % of control

CC(C)(C)OC(=O)CCC(NC(=O)OCc1ccccc1)C(=O)O (centres undefined)
inactive: [7] 93 % of control | endpoint: mean survival time, dose: 100.0 mg/kg/injection, schedule: Q01DX001 (ip), vehicle: saline sonified 103 % of control | [8] 94 % of control | endpoint: mean survival time, dose: 200.0 mg/kg/injection, schedule: Q01DX001 (ip), vehicle: saline sonified 109 % of control

O=C(On1nnc2ccccc2c1=O)c1ccccc1
inactive: endpoint: mean survival time, dose: 12.5 mg/kg/injection, schedule: Q01DX001 (ip), vehicle: distilled water + Tween-80 102 % of control | endpoint: mean survival time, dose: 25.0 mg/kg/injection, schedule: Q01DX001 (ip), vehicle: distilled water + Tween-80 101 % of control | endpoint: mean survival time, dose: 50.0 mg/kg/injection, schedule: Q01DX001 (ip), vehicle: distilled water + Tween-80 98 % of control | endpoint: mean survival time, dose: 100.0 mg/kg/injection, schedule: Q01DX001 (ip), vehicle: distilled water + Tween-80 100 % of control | endpoint: mean survival time, dose: 200.0 mg/kg/injection, schedule: Q01DX001 (ip), vehicle: distilled water + Tween-80 97 % of control

Cc1ccc(NC2=NCCS2)c(C)c1
inactive: endpoint: mean survival time, dose: 25.0 mg/kg/injection, schedule: Q01DX001 (ip), vehicle: saline with Tween-80 106 % of control | [9] 89 % of control and 95 % of control | [10] 104 % of control and 106 % of control | endpoint: mean survival time, dose: 25.0 mg/kg/injection, schedule: Q04DX003 (ip), vehicle: saline with Tween-80 101 % of control | endpoint: mean survival time, dose: 50.0 mg/kg/injection, schedule: Q01DX001 (ip), vehicle: saline with Tween-80 106 % of control | [11] 97 % of control and 103 % of control | [12] 95 % of control and 110 % of control | [7] 98 % of control | [3] 102 % of control | [13] 103 % of control | [8] 96 % of control

CC(=O)Nc1ccc(-c2c(NCCO)ncc3ccccc23)cc1
inactive: endpoint: mean survival time, dose: 25.0 mg/kg/injection, schedule: Q04DX003 (ip), vehicle: other 104 % of control | endpoint: mean survival time, dose: 50.0 mg/kg/injection, schedule: Q04DX003 (ip), vehicle: other 98 % of control | [14] 98 % of control | endpoint: mean survival time, dose: 200.0 mg/kg/injection, schedule: Q04DX003 (ip), vehicle: other 104 % of control

Oc1ccc(Cl)cc1Sc1cc(Cl)ccc1O
inactive: [14] 108 % of control

COc1nccnc1NS(=O)(=O)c1ccc(N)cc1
inactive: endpoint: mean survival time, dose: 100.0 mg/kg/injection, schedule: Q04DX003 (ip), vehicle: saline 98 % of control | endpoint: mean survival time, dose: 200.0 mg/kg/injection, schedule: Q04DX003 (ip), vehicle: saline 100 % of control | endpoint: mean survival time, dose: 400.0 mg/kg/injection, schedule: Q04DX003 (ip), vehicle: saline 104 % of control

Cc1cccc(Cl)c1NC(=O)CCCl
inactive: [8] 97 % of control | [15] 106 % of control | [16] 98 % of control

O=[N+]([O-])c1ccc(C(Cl)S(=O)(=O)c2ccccc2)cc1 (centres undefined)
inactive: [4] 98 % of control | [5] 92 % of control | [6] 110 % of control

COc1cc(-c2[o+]c3cc(O)cc(O)c3cc2OC2OC(CO)C(O)C(O)C2O)cc(OC)c1O (centres undefined)
inactive: [9] 94 % of control | [11] 96 % of control | [13] 96 % of control

Nc1nc(N)c(CCCOc2ccc(C(=O)O)cc2)c(N)n1
inactive: [17] 94 % of control | [4] 101 % of control | [5] 94 % of control

Cn1c2ccccc2c(=O)c2ccc(Cl)cc21
inactive: [8] 95 % of control | [15] 96 % of control | [16] 96 % of control

CC(N)CCCO (centres undefined)
inactive: [1] 109 % of control | [2] 94 % of control

Nc1nc(=Nc2ccccc2)n(C2OCC(O)C(O)C2O)c2ccccc12 (centres undefined)
inactive: endpoint: mean survival time, dose: 12.5 mg/kg/injection, schedule: Q01DX005 (ip), vehicle: distilled water + Tween-80 94 % of control | endpoint: mean survival time, dose: 25.0 mg/kg/injection, schedule: Q01DX005 (ip), vehicle: distilled water + Tween-80 94 % of control | endpoint: mean survival time, dose: 50.0 mg/kg/injection, schedule: Q01DX005 (ip), vehicle: distilled water + Tween-80 93 % of control | endpoint: mean survival time, dose: 100.0 mg/kg/injection, schedule: Q01DX005 (ip), vehicle: distilled water + Tween-80 90 % of control | endpoint: mean survival time, dose: 200.0 mg/kg/injection, schedule: Q01DX005 (ip), vehicle: distilled water + Tween-80 86 % of control

CC(=O)OC1CSC(C(C)(C)C)SC1 (centres undefined)
inactive: endpoint: mean survival time, dose: 12.5 mg/kg/injection, schedule: Q04DX002 (ip), vehicle: saline with Tween-80 102 % of control | [10] 102 % of control | [12] 108 % of control

CCc1ccc(O[Si](C)(C)C)cc1
inactive: [8] 97 % of control | [15] 99 % of control

Nc1ccc(S(=O)(=O)c2ccc(N)c(S(N)(=O)=O)c2)cc1
inactive: [13] 92 % of control | endpoint: mean survival time, dose: 200.0 mg/kg/injection, schedule: Q01DX009 (ip), vehicle: saline with Tween-80 91 % of control | endpoint: mean survival time, dose: 400.0 mg/kg/injection, schedule: Q01DX009 (ip), vehicle: saline with Tween-80 100 % of control

CC(=O)OC1CCC2(C)C(=CC=C3C2CCC2(C)C3CCC2C(C)/C=C/C(C)C(C)C)C1 (centres undefined)
inactive: [17] 89 % of control | [4] 101 % of control | [5] 93 % of control

CC(=O)OC1C(CO)OC(n2ccc3c(N)ncnc32)C1O (centres undefined)
inactive: endpoint: mean survival time, dose: 5.0 mg/kg/injection, schedule: Q01DX001 (ip), vehicle: saline 104 % of control | endpoint: mean survival time, dose: 10.0 mg/kg/injection, schedule: Q01DX001 (ip), vehicle: saline 117 % of control | endpoint: mean survival time, dose: 20.0 mg/kg/injection, schedule: Q01DX001 (ip), vehicle: saline 117 % of control | endpoint: mean survival time, dose: 40.0 mg/kg/injection, schedule: Q01DX001 (ip), vehicle: saline 110 % of control
